Source: patent publication US10443026B2, “Polygonal scaffold and manufacturing method thereof, and protein modulator and manufacturing method thereof” (NATIONAL TSING HUA UNIVERSITY, priority 2017, dated 2019)
pKd: −log10 of the molar value. Read-outs that look alike come from different tables or passages of the source. *1 amine or outer side, *2 acyl side, *3 side chain or, on linkers, in order; H or OH if unused. Where a SMILES comes first, the peptide text is derived from it. [ ]: non-standard residue; d: D form. The star is where a group is joined. Pro(trans-4-NH2) = O=C([C@@H]1C[C@@H](N[*:3])CN1[*:1])[*:2]; X2 = CC(=O)NC1C(OCCn2cc(CCC(=O)*)nn2)OC(CO)C(O)C1O; X1 = O=C(CCCn1cc(CN[*:1])nn1)[*:2]

Target: SBA (soybean agglutinin) (Glycine max, UniProt P05046)
Sequence (P05046 33-285): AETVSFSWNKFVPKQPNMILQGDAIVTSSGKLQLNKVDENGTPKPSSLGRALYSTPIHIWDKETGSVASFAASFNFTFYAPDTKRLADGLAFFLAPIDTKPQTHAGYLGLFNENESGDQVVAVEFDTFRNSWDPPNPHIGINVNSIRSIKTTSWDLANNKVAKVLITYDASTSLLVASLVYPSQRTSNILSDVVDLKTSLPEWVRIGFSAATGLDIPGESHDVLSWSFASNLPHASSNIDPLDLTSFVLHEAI
Test: Surface plasmon resonance (SPR) binding to immobilized SBA
Method: Assay: surface plasmon resonance (SPR) experiments were performed on the Biacore T200 at 25° C. using a functionalized CM5 sensor chip. Protein immobilization was performed according to the instrument build-in wizard template. The CM5 sensor chip was activated with a solution containing N-ethyl-N′-(3-[…])-carbodiimide (EDC) (0.2 M) and N-hydroxysuccinimide (NHS) (0.05 M). HPA (10 μg/mL) in NaOAc buffer (pH 6) or SBA (10 μg/mL) in NaOAc buffer (pH 4) was injected over the activated flow cell at flow rate of 10 μL/min for 420 s. Then 1 M ethanolamine at pH 8.5 was injected to block the remaining activated groups. Binding assays were performed with HBS-P+(10 mM HEPES, 150 mM NaCI, 0.05% tween 20, pH 7.4) for HPA or 10 mM HEPES, 150 mM NaCl, 0.05% tween 20, and 100 μM CaCl2, 0.05% tween 20, pH 7.5 for SBA as running buffer. Protein modulator for test (COM1, SL4, SL5 and SL6) were injected onto the surface, with several concentrations of ranging from 6.25 nM to 100 nM for protein modulator COM1 and 10 nM to 160 nM for protein modulators SL4, SL5 and SL6 to HPA or from 62.5 nM to 1000 nM for protein modulator COM1 and 100 nM to 1600 nM for protein modulators SL4, SL5 and SL6 to SBA at the rate of 30 μL/min diluted in the running buffer. The surface was regenerated by 30 s injection of 300 mM GlcNAc for HPA or 100 mM methyl β-D-galactopyranoside for LecA. The sensorgrams were reference subtracted, quality controlled and analyzed by Biacore T200 Evaluation Software, and the kinetic parameters were obtained by fitting curves to 1:1 Langmuir model.

SMILES	Kd (SPR, Biacore T200, 25° C., SBA immobilized on CM5 chip, HEPES buffer with 100 μM CaCl2 pH 7.5, 1:1 Langmuir model, read-out: KD(nM) SBA)	pKd
CC(=O)NC1C(OCCn2cc(CNC(=O)CCOCC(COCCC(=O)NCc3cn(CCOC4OC(CO)C(O)C(O)C4NC(C)=O)nn3)(COCCC(=O)NCc3cn(CCOC4OC(CO)C(O)C(O)C4NC(C)=O)nn3)NC(=O)COCCOCCN)nn2)OC(CO)C(O)C1O (stereo not shown) [COM1, reference compound]	61.2 nM	
CC(=O)NC1C(OCCn2cc(CCC(=O)N[C@@H]3C[C@H]4C(=O)N5CCC[C@H]5C(=O)N5CCC[C@H]5C(=O)N5CCC[C@H]5C(=O)N5CCC[C@H]5C(=O)N5CCC[C@H]5C(=O)N5CCC[C@H]5C(=O)N5CCC[C@H]5C(=O)N5CCC[C@H]5C(=O)NCc5cn(nn5)CCCC(=O)N5C[C@H](NC(=O)CCc6cn(CCOC7OC(CO)C(O)C(O)C7NC(C)=O)nn6)C[C@H]5C(=O)N5CCC[C@H]5C(=O)N5CCC[C@H]5C(=O)N5CCC[C@H]5C(=O)N5CCC[C@H]5C(=O)N5CCC[C@H]5C(=O)N5CCC[C@H]5C(=O)N5CCC[C@H]5C(=O)N5CCC[C@H]5C(=O)NCc5cn(nn5)CCCC(=O)N5C[C@H](NC(=O)CCc6cn(CCOC7OC(CO)C(O)C(O)C7NC(C)=O)nn6)C[C@H]5C(=O)N5CCC[C@H]5C(=O)N5CCC[C@H]5C(=O)N5CCC[C@H]5C(=O)N5CCC[C@H]5C(=O)N5CCC[C@H]5C(=O)N5CCC[C@H]5C(=O)N5CCC[C@H]5C(=O)N5CCC[C@H]5C(=O)NCc5cn(nn5)CCCC(=O)N4C3)nn2)OC(CO)C(O)C1O (stereo partly drawn) [SL4] (cyclo(PPPPPPPP[X1][Pro(trans-4-NH2)](X2)PPPPPPPP[X1][Pro(trans-4-NH2)](X2)PPPPPPPP[X1][Pro(trans-4-NH2)](X2)))		7.01
CC(=O)NC1C(OCCn2cc(CCC(=O)N[C@@H]3C[C@H]4C(=O)N5CCC[C@H]5C(=O)N5CCC[C@H]5C(=O)N5CCC[C@H]5C(=O)N5CCC[C@H]5C(=O)N5CCC[C@H]5C(=O)N5CCC[C@H]5C(=O)N5CCC[C@H]5C(=O)N5CCC[C@H]5C(=O)NCc5cn(nn5)CCCC(=O)N5CCC[C@H]5C(=O)N5CCC[C@H]5C(=O)N5CCC[C@H]5C(=O)N5CCC[C@H]5C(=O)N5CCC[C@H]5C(=O)N5CCC[C@H]5C(=O)N5CCC[C@H]5C(=O)N5CCC[C@H]5C(=O)N5CCC[C@H]5C(=O)NCc5cn(nn5)CCCC(=O)N5C[C@H](NC(=O)CCc6cn(CCOC7OC(CO)C(O)C(O)C7NC(C)=O)nn6)C[C@H]5C(=O)N5CCC[C@H]5C(=O)N5CCC[C@H]5C(=O)N5CCC[C@H]5C(=O)N5CCC[C@H]5C(=O)N5CCC[C@H]5C(=O)N5C[C@H](NC(=O)CCc6cn(CCOC7OC(CO)C(O)C(O)C7NC(C)=O)nn6)C[C@H]5C(=O)N5CCC[C@H]5C(=O)N5CCC[C@H]5C(=O)NCc5cn(nn5)CCCC(=O)N4C3)nn2)OC(CO)C(O)C1O (stereo partly drawn) [SL5] (cyclo(PPPPPPPPP[X1][Pro(trans-4-NH2)](X2)PPPPP[Pro(trans-4-NH2)](X2)PP[X1][Pro(trans-4-NH2)](X2)PPPPPPPP[X1]))		6.86
CC(=O)NC1C(OCCn2cc(CCC(=O)N[C@@H]3C[C@H]4C(=O)N5CCC[C@H]5C(=O)N5CCC[C@H]5C(=O)N5C[C@H](NC(=O)CCc6cn(CCOC7OC(CO)C(O)C(O)C7NC(C)=O)nn6)C[C@H]5C(=O)N5CCC[C@H]5C(=O)N5CCC[C@H]5C(=O)N5C[C@H](NC(=O)CCc6cn(CCOC7OC(CO)C(O)C(O)C7NC(C)=O)nn6)C[C@H]5C(=O)N5CCC[C@H]5C(=O)N5CCC[C@H]5C(=O)NCc5cn(nn5)CCCC(=O)N5CCC[C@H]5C(=O)N5CCC[C@H]5C(=O)N5CCC[C@H]5C(=O)N5CCC[C@H]5C(=O)N5CCC[C@H]5C(=O)N5CCC[C@H]5C(=O)N5CCC[C@H]5C(=O)N5CCC[C@H]5C(=O)N5CCC[C@H]5C(=O)NCc5cn(nn5)CCCC(=O)N5CCC[C@H]5C(=O)N5CCC[C@H]5C(=O)N5CCC[C@H]5C(=O)N5CCC[C@H]5C(=O)N5CCC[C@H]5C(=O)N5CCC[C@H]5C(=O)N5CCC[C@H]5C(=O)N5CCC[C@H]5C(=O)N5CCC[C@H]5C(=O)NCc5cn(nn5)CCCC(=O)N4C3)nn2)OC(CO)C(O)C1O (stereo partly drawn) [SL6] (cyclo(PPPPPPPPP[X1]PPPPPPPPP[X1][Pro(trans-4-NH2)](X2)PP[Pro(trans-4-NH2)](X2)PP[Pro(trans-4-NH2)](X2)PP[X1]))		6.59
